Experimental data taken from ChEMBL document CHEMBL4699453, “Correlations between functional porphyrin positions and accumulation in cancer cells” (Bioorg Med Chem Lett, 2020).

Experiments:
[1] = Drug uptake in human MCF7 cells at 10 uM incubated for 24 hrs by fluorescence based assay; format: ADME, cell-based; conditions: mcf7, 24 h
[2] = biological target: T1, Albumin (Bos taurus, UniProt P02769); assay: Binding affinity to bovine serum albumin assessed as binding constant by fluorescence based Stern-Volmer plot analysis; conditions: cattle
[3] = biological target: T1, Albumin; assay: Binding affinity to bovine serum albumin assessed as Stem-Volmer quenching constant by fluorescence based Stern-Volmer plot analysis; conditions: cattle
[4] = Drug uptake in human MCF7 cells at 10 uM incubated for 2 hrs by fluorescence based assay; format: ADME, cell-based; conditions: mcf7, 2 h

T1 sequence (P02769 whole entry): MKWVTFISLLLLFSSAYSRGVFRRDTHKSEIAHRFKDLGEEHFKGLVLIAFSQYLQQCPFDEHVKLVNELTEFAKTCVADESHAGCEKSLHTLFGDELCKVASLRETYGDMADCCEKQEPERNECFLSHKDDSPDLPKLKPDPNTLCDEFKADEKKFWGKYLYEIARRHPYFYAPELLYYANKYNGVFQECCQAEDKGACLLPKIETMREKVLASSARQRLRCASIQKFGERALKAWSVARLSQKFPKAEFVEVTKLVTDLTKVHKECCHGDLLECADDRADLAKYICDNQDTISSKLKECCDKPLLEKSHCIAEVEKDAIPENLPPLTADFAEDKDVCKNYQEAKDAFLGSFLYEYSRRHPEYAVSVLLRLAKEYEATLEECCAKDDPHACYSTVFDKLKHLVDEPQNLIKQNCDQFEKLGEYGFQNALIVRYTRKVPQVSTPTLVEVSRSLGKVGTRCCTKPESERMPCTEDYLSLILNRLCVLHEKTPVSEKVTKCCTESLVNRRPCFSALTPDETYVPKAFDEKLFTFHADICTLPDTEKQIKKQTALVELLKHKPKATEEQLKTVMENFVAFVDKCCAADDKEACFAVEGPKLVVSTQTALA

Row | Drug uptake [1] | Ka [2] | KSV [3] | Drug uptake [4] | Compound
1 | 5.8 10^-2microM | 3.84 10^4L/mol | 4.96 10^4L/mol | 5.8 10^-2microM | CC(=O)Nc1ccc(-c2c3nc(c(-c4ccccc4)c4ccc([nH]4)c(-c4ccccc4)c4nc(c(-c5ccccc5)c5ccc2[nH]5)C=C4)C=C3)cc1
2 | 4.3 10^-2microM | 2.86 10^4L/mol | 4.33 10^4L/mol | 3.3 10^-2microM | CC(=O)NC1=Cc2nc1c(-c1ccccc1)c1ccc([nH]1)c(-c1ccccc1)c1nc(c(-c3ccccc3)c3ccc([nH]3)c2-c2ccccc2)C=C1
3 | 4.4 10^-2microM | 3.12 10^4L/mol | 4.09 10^4L/mol | 3 10^-2microM | CCCCCCCCCCCCCCCC(=O)Nc1ccc(-c2c3nc(c(-c4ccccc4)c4ccc([nH]4)c(-c4ccccc4)c4nc(c(-c5ccccc5)c5ccc2[nH]5)C=C4)C=C3)cc1
4 | 1.7 10^-2microM | 1.98 10^4L/mol | 3.03 10^4L/mol | 1.7 10^-2microM | CCCCCCCCCCCCCCCC(=O)NC1=Cc2nc1c(-c1ccccc1)c1ccc([nH]1)c(-c1ccccc1)c1nc(c(-c3ccccc3)c3ccc([nH]3)c2-c2ccccc2)C=C1
